We go through three compounds from patent US20260183316A1, “CANNABICHROMENE-TYPE CANNABINOID COMPOSITIONS, METHODS AND USES THEREOF” (Cronos Group Inc., priority 2022, published 2026).

Values joined by “and” are separate entries in the source; they are usually repeats but may differ in a detail not shown here. Equal values may be shown once. Some results are limits rather than exact numbers.

One data set deals with rodents. The following applies: intravenously administered, high doses (30 and 100 mg/kg); cited from earlier work.
For data set [1] the following is noted: oral gavage once daily for 14 days, cited from earlier work.
Data set [2] relates to C57BL/6 mice. As to the kind of experiment: Nociception in the warm water tail flick assay, tetrad. The data set is classed as in vivo. The following applies: for ED50: Mus musculus, po, 20 min, tail flick 52° C., read-out: Pain relief ED50 (95% C.I.); for ED50 / Pain relief Emax ± S.E.M.: 20 min after 0.3-30 mg/kg p.o.; for Pain relief Emax ± S.E.M.: tail flick % MPE 20 sec; for dose-dependent reduction in pain sensation: warm water tail flick 20 minutes after administration, 0.3-30 mg/kg p.o. The procedure:
(§1) Female and male C57BL/6 mice between 8 and 12 weeks of age were used for these studies. Animals were group housed at the Laboratory Animal Services Unit (LASU) at the University of Saskatchewan (5 mice/cage for females, 3 mice/cage for males) with a standard 12:12 light-dark cycle, ad libitum access to food and water, and environmental enrichment. All compounds were prepared in a vehicle composed of ethanol and kolliphor in saline (1:1:8) for i.v. tail vein injections or olive oil for oral gavage (p.o.) at the doses indicated in description of the figures. Compounds were administered at the doses indicated in mg/kg body weight, with body weights being measured on the same day as drug administration. Experimenters were blinded to treatment for all assessments and analyses. Animals were purchased from Charles River Labs (Senneville, QC), rather than bred, to reduce animal numbers. At the end of experiments, mice were euthanized via isoflurane overdose and cardiac puncture. In all cases, experiments were performed with the approval of the University Animal Care Committee (UACC) at the University of Saskatchewan (Animal Use Protocol #20200043) and in keeping with the guidelines of the Canadian Council on Animal Care (CCAC).
(§2) Mice were assessed in the ‘tetrad’ battery of physiological and behavioural assessments. This included, in the following order: a bar holding assessment of catalepsy, rectal thermometer assessment of body temperature, a test of nociception in the warm water tail flick assay, and a test of locomotion and anxiety in the open field test (OFT). The precise timing of each measurement are stated in description of the figures. The same animals were used for all four measures of the tetrad.
Activation of CB1R is associated with elevated tail-flick latency (i.e. less nociception as indicated by the mouse keeping their tail in the water longer).
In general terms: Hot-plate and tail-flick tests time the reaction to a heat stimulus.

In the next data set the test system is Long Evans rats. Conditions: CBC 3-30 mg/kg following D9-THC 3 mg/kg intraperitoneal; cited from earlier work.
The nature of data set [3]: Pharmacokinetic measurement of CBC in blood (HPLC-MS/MS). Conditions: analyte CBC.
Data set [4] relates to C57BL/6 mice. Briefly: Body temperature by rectal thermometer, tetrad. The following applies: for dose-dependent hypothermia: 10 min after administration, 0.3-30 mg/kg p.o.; for Body temperature Emax ± S.E.M.: change in body temperature 10 min after 0.3-30 mg/kg p.o. The data set is classed as in vivo. The procedure:
as §1, §2
Body temperature was measured after compound administration by using a rectal thermometer. Activation of CB1R is associated with reduced body temperature.

Data set [5] concerns C57BL/6 mice. As to the kind of experiment: Open field test (OFT): locomotion and time in central quadrant. The data set is classed as in vivo. Conditions: for dose-dependent reduction in movement in the OFT / time spent in the center of the OFT (anxiety-reducing effect): 30 minutes after administration, 0.3-30 mg/kg p.o.; for ED50: po, 0.5 h; for Movement Emax ± S.E.M.: OFT distance in 5 minutes. As to the method: as §1, §2
Locomotion was measured in the open field test (OFT) after compound administration. Mice were placed in the centre of an open chamber measuring 1 m×1 m for 5 minutes. Total distance travelled and time spent in the central quadrant of the field are recorded on a video camera, and the video analyzed in EthoVision XT (Noldus Information Technology Inc., Leesburg, VA).

In data set [6] the test system is C57BL/6 mice. As to the kind of experiment: Catalepsy in the bar (ring) holding assay, tetrad. The data set is classed as in vivo. Conditions: for Lethargy Emax ± S.E.M.: catalepsy % MPE 60 sec, 5 min after 0.3-30 mg/kg p.o.; for dose-dependent catalepsy: ring holding assay 5 minutes after treatment, 0.3-30 mg/kg p.o. The procedure:
as §1, §2
Catalepsy was assessed in the bar holding assay after compound administration with mice placed so that their forepaws clasped a 0.7-cm ring clamp 4.5 cm above the surface of the testing space. The length of time the ring was held was recorded up to 60 sec (i.e., percent maximum possible effect [MPE] 60 seconds) with the trial ending if the mouse turned its […] or body or made three consecutive escape attempts. Activation of CB1R is associated with increased catalepsy.

Data set [7] has as its system C57BL/6 mice. As to the kind of experiment: Elevated plus maze (EPM), modelled anxiety. The data set is classed as in vivo. The following applies: 10 mg/kg p.o., 30 minutes after treatment; for time spent in the closed arms of the EPM: post-hoc no differences. As to the method:
(§3) In addition to the physiological assessment of the tetrad, mice were subjected to several behavioural assessments detailed here. These experiments followed a set timeline beginning 30 minutes after compound administration, based on an approximation that the maximum blood concentration of drug occurred 30-60 minutes after animals had received oral gavage. In these experiments the same type of mice were used for elevated plus maze, y-maze, and forced swim test back-to-back-to-back; however, this was a separate cohort of mice from those used in tetrad or PK experiments.
Modelled anxiety—the elevated plus maze: Mice were placed in the centre space of an elevated plus maze (EPM) standing 45 cm above the floor and having 2 closed-walled arms and 2 open arms each measuring 45 cm long. Mice were placed facing an open arm and their movement recorded for 5 minutes beginning 30 minutes after drug administration. Total distance travelled, arm entries, and time spent in each arm was recorded on a video camera and scored by an individual blinded to treatment group.

For data set [8], the system named is C57BL/6 mice. As to the kind of experiment: y-maze, modelled exploratory behaviour and cognition. Conditions: 10 mg/kg p.o., 40 min after administration. It is filed as in vivo. The procedure: as §3
Modelled exploratory behaviour and cognition—the y-maze: The y-maze consists of three […] long×15 cm wide arms equally spaced 120° apart. Mice were allowed to habituate to the y-maze with one arm closed off (the novel arm) for 15 minutes 1 day prior to the experiment. On testing day, mice were placed in the centre space the y-maze facing the novel arm. Movement and arm entries were recorded for 5 min beginning 40 minutes after drug administration. Total distance travelled, arm entries, and % correct alternations between each arm were recorded on a video camera and scored by an individual blinded to treatment group.

The test system of data set [9] is C57BL/6 mice. Briefly: Forced swim test (FST), modelled behavioural despair and resiliency. It is filed as in vivo. The following applies: 10 mg/kg p.o., 50 min after administration. As to the method: as §3
Modelled behavioural despair and resiliency—the forced swim test: Mice were placed in 800 mL of 22° C. water in a clear beaker with a 10 cm diameter such that the depth of water was approximately 10-11 cm. Mice were allowed to swim and their movement recorded for 5 minutes beginning 50 minutes after drug administration. Time spent swimming and time spent immobile was recorded on a video camera and scored by an individual blinded to treatment group.

The nature of data set [10]: Pharmacokinetic measurement of THC in blood (HPLC-MS/MS). The following applies: analyte THC.
A further data set has as its system dogs. Conditions: cited from earlier work.
Setting [11] is: Mus musculus, OFT locomotion 30 min after 0.3-30 mg/kg p.o., read-out: Movement ED50 (95% C.I.).
Setting [12] is: time in central quadrant of OFT, 30 min after 0.3-30 mg/kg p.o.

On to `CCCCCc1cc(O)c2c(c1)OC(C)(CCC=C(C)C)C=C2` (racemic) [CBC, cannabichromene], for which, in the data set with rodents, the tetrad effects entry is “produced locomotor suppression, catalepsy, and hypothermia consistently at high doses”. The “concentrations in brain tissue” value in [1] is recorded as “highest concentrations in brain tissue”. In addition, the “maximum observed concentration and AUC in plasma” value in [1] (of the four cannabinoids tested) is “highest maximum observed concentration and AUC”. In the data set with C57BL/6 mice [2], the ED50 (in general, the dose at which the effect has come halfway, by size or by number of responders) is more than 30 mg/kg; the “Pain relief Emax ± S.E.M.” value is 37 ± 13%; the “dose-dependent reduction in pain sensation” value is reported as “dose-dependent pain-relieving effects”. Besides, in the data set on Long Evans rats, the “perceptual effects of D9-THC” value was “did notsignificantly alter the perceptual effects of D9-THC” and the response rates result was “decrease response rates”. In addition, the F in [3] (10 mg/kg i.v., Combined) was found to be 100%. The same compound showed a F in data set [3] (10 mg/kg i.v., Female) of 100%. The F in data set [3] (10 mg/kg i.v., Male) stood at 100%. Further, the F in data set [3] (10 mg/kg p.o., Combined) amounted to 39%. In data set [3] (10 mg/kg p.o., Female), this compound came in with an F of 53%. In addition, the F in data set [3] (10 mg/kg p.o., Male) is listed as 27%. In addition, in the data set on C57BL/6 mice [4], the dose-dependent hypothermia entry was “no dose-dependent hypothermia” and the “Body temperature Emax ± S.E.M.” value worked out at 0.53 ± 0.27 °C. Also, in the data set on C57BL/6 mice [5], the “dose-dependent reduction in movement in the OFT” value is “dose-dependent reduction in movement” and the “time spent in the center of the OFT (anxiety-reducing effect)” value is listed as “anxiety-reducing effect”. Further, the ED50 in the data set on C57BL/6 mice [5] (setting [11]) came to 35 mg/kg. Besides, the “Movement Emax ± S.E.M.” value in the data set on C57BL/6 mice [5] (30 min after 0.3-30 mg/kg p.o.) is on record as 1,600 ± 340 cm. Moreover, the “Anxiety-reduction Emax ± S.E.M.” value with C57BL/6 mice [5] (setting [12]) was determined as 32 ± 7.2 s. Further, in the data set with C57BL/6 mice [6], the “Lethargy Emax ± S.E.M.” value worked out at 1.1 ± 0.16 % and the dose-dependent catalepsy result was “no dose-dependent catalepsy”. In the data set on C57BL/6 mice [7], the “open arm entries in the EPM” value is recorded as “trend toward CBC producing more open arm entries than other groups, this was not statistically significant” and the “time spent in the closed arms of the EPM” value is on record as “trend toward less time spent in the closed arms”. For the same compound, in the data set on C57BL/6 mice [8], the “% correct alternations in the y-maze” value is “increased % correct alternations compared to vehicle”.
As to `CCCCCc1cc(O)c2c(c1)OC(C)(C)[C@@H]1CCC(C)=C[C@@H]21` [THC, tetrahydrocannabinol], the “time swimming and time immobile in the FST compared to vehicle” value in the data set with C57BL/6 mice [9] was “further suppressed swimming time and increased immobile time”. Moreover, in the data set with C57BL/6 mice [2], the ED50 was approximately 3.8 mg/kg; the “Pain relief Emax ± S.E.M.” value is 57% and 57 ± 16%; the “dose-dependent reduction in pain sensation” value is “dose-dependent reduction in pain sensation”. Also, in the data set on C57BL/6 mice [4], the dose-dependent hypothermia entry was “dose-dependent hypothermia”; the “Body temperature Emax ± S.E.M.” value is −2.8 °C and −2.8 ± 0.20 °C. The ED50 in the data set with C57BL/6 mice [4] (Mus musculus, po, 10 min, 10 min after 0.3-30 mg/kg p.o., read-out: Body temperature ED50 (95% C.I.)) was approximately 0.2 mg/kg. Further, in the data set with C57BL/6 mice [5], the “dose-dependent reduction in movement in the OFT” value is listed as “dose-dependent reduction in movement” and the “time spent in the center of the OFT (anxiety-reducing effect)” value is reported as “dose-dependent increase in the total time spent in the center of the OFT”. Also, the ED50 with C57BL/6 mice [5] (setting [11]) was approximately 6.6 mg/kg. Besides, the ED50 with C57BL/6 mice [5] (Mus musculus, time in central quadrant of OFT, 30 min after 0.3-30 mg/kg p.o., read-out: Anxiety-reduction ED50 (95% C.I.)) is more than 30 mg/kg. Moreover, the Emax in the data set on C57BL/6 mice [5] (Mus musculus, OFT, versus vehicle-treated level of approximately 3,300 cm in 5 minutes, read-out: reduction in movement at maximum effect) amounted to 48%. Besides, the “Movement Emax ± S.E.M.” value in the data set with C57BL/6 mice [5] (30 min after 0.3-30 mg/kg p.o.) is 1,700 cm and 1,700 ± 980 cm. In the data set on C57BL/6 mice [5] (setting [12]), the “Anxiety-reduction Emax ± S.E.M.” value worked out at 81 ± 72 s. The ED50 with C57BL/6 mice [6] (Mus musculus, po, 5 min, catalepsy 5 min after 0.3-30 mg/kg p.o., male and female combined, read-out: Lethargy ED50 (95% C.I.)) was approximately 12 mg/kg. In the data set on C57BL/6 mice [6], the “Lethargy Emax ± S.E.M.” value is 76% and 76 ± 16%; the dose-dependent catalepsy result is “increasing catalepsy in a dose-dependent manner”. Further, in the data set with C57BL/6 mice [7], the “overall movement in the EPM” value was “reduced overall movement in the EPM, although this change was not statistically significant”; the “time in the center of the EPM” value was “more time in the center compared to 1:6.92 (CBC:THC)”; the “time spent in the closed arms of the EPM” value is on record as “trend toward less time spent in the closed arms”. Also, the “time in the open arms of the EPM” value with C57BL/6 mice [7] (not statistically significant) was “appeared to suppress time in the open arms”. In addition, the F in [10] (10 mg/kg i.v., Combined) came to 100%. The compound further returned a F in [10] (10 mg/kg i.v., Female) of 100%. The F in data set [10] (10 mg/kg i.v., Male) is recorded as 100%. Also, the F in data set [10] (10 mg/kg p.o., Combined) is given as 15%. The same compound gave a F in data set [10] (10 mg/kg p.o., Female) of 33%. This compound gave a F in [10] (10 mg/kg p.o., Male) of 3.7%. In addition, in the data set on C57BL/6 mice [8], the “% correct alternations in the y-maze” value was “appeared to reduce correct alternations”, the “overall locomotion in the y-maze” value was “reduced overall locomotion” and the “total arm entries in the y-maze” value is reported as “lower”.
Take `CCCCCc1cc(OC(C)=O)c2c(c1)OC(C)(C)[C@@H]1CCC(C)=C[C@@H]21` [THC-OAc, tetrahydrocannabinol-o-acetate]: the “degree of ataxia compared with Δ9-THC” value in the data set with dogs is given as 2 fold.
